Values of other authors in US11491120B2, “Pharmacological prophylactics against stress-induced affective disorders in females” (The Trustees of Columbia University in the City of New York, priority 2017, dated 2022).

Tests used:
[1] = following ketamine infusion; cited from earlier work
[2] = system: NMDAR; conditions: cited from earlier work

Structure (SMILES) | Share of the original ketamine dose found as metabolite in the brain [1] | Antagonism of the NMDAR, relative strength [2]
N[C@@]1(c2ccccc2Cl)CCC[C@@H](O)C1=O [(2R,6R;2S,6S)-HNK, (2R,6R;2S,6S)-hydroxynorketamine] | 15% | –
CN[C@]1(c2ccccc2Cl)CCCCC1=O [(S)-ketamine] | – | four-fold stronger antagonist
